Experimental data from patent US20050143472A1, “Novel treatment for pathologies associated with oxidative damage” (priority 2002, published 2005).
Entries after “also recorded” stand apart in the source; their conditions may differ. Read-outs that look alike come from different tables or passages of the source.

Experiments:
mPAO [1] = molecular target: T1, mPAO (Mus musculus, UniProt Q8C0L6); assay: Oxygraph assay of O2 consumption, progress-curve analysis; assay type: biochemical, murine; settings: progress curves before and after catalase addition
T1 construct: the full length cDNA of mpao was released by Nde I and Hind III treatment, and ligated into Nde I and Hind III sites of pET29c; made in house; host or cells: E. coli BL21 GOLD (DE3), plasmid pET-MPAO (pET29c)
T1 sequence (Q8C0L6 whole entry E184K/L285S/R416L/R417S/Q419R/E451A/V490I/S491G/V497A): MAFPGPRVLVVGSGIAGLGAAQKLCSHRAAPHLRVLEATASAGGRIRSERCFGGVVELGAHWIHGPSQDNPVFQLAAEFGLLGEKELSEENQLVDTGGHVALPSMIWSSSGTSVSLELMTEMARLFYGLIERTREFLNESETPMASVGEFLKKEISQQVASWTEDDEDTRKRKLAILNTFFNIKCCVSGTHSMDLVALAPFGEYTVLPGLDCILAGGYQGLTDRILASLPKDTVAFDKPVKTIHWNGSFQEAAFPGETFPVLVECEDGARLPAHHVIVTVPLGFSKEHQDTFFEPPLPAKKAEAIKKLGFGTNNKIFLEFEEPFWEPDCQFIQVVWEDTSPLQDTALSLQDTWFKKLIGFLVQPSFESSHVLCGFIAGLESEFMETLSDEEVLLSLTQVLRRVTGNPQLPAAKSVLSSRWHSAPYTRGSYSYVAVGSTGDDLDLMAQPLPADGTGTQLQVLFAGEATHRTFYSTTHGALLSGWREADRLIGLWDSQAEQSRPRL
Method: Some assays (oxygraph assays) were carried out by directly monitoring O2 consumption in air-saturated buffer ([O2]=0.237 mM) or buffer saturated with pure O2 at 30° C. ([O2]=1.12 mM). The depletion of O2 was detected with a Yellow Springs Instruments, Inc. Model 53 Oxygen Monitor equipped with a Clark electrode. […] Following a published procedure (Goudar et al., Biochim. Biophys. Acta 1429:377-383 [1999]), the data were fitted to the integrated Mechaelis-Menton equation. The analyses were done using Maple VI (Windows 2000) software (Waterloo Maple, Inc.) running on a PC computer. […] Inhibition by the H2O2, formed as a product of polyamine oxidation by mPAO, was assessed by addition of 2 μL of a 30 mg/mL (30,000 units/mg) solution of catalase, after [O2] reached zero.
The catalase immediately converted each mole of H2O2 to 0.5 mol of O2 (since [O2]=1.12 mM for pure O2-saturated buffer, then [O2]=0.56 mM immediately after catalase addition). In the presence of catalase, O2 depletion should occur at 0.5× the rate as it does in the absence of catalase (unless H2O2 inhibition is operating). With catalase present, each molecule of O2 will be converted eventually to H2O (4-electron equivalents), rather than to H2O2 (2-electron equivalents).

mPAO [2] = molecular target: T1, mPAO; assay: Steady-state kinetic spectrophotometric assay of mPAO (H2O2 formation); assay type: biochemical, murine; settings: for kcat′ / KS′: apparent value; for kcat′: air-saturated 50 mM KH2PO4/KOH buffer pH 7.6, [O2] 237 μM; for inhibitor of mPAO (oxidation of N^1-acetyl-Spm) / substrate for mPAO (oxidation by mPAO): in words; for kcat′/KS′: specificity constant, air-saturated buffer pH 7.6; for KS′: air-saturated buffer pH 7.6, [O2] 237 μM
Method: In this example the methods used to examine mPAO steady state kinetics are described. Spectrophotometric assays were done at 30° C. in a potassium phosphate buffer (e.g., 50 mM KH2PO4/KOH buffer, pH 7.6 saturated in air or in pure oxygen), using a published procedure which provides a continuous monitor of the H2O2 produced (Holt et al., Anal. Biochem. 244:384-392 [1997]). These assays were done in 1 mL cuvette with 0.8 mL of solution containing varying amounts of substrate, 1 mM vanillic acid, 0.5 mM 4-aminopyrine, 4 units of horseradish peroxidase, and 0.1-0.2 μg of mPAO. The reactions were monitored at 498 nm with a UVIKON 840 spectrophotometer (KONTRON Instruments) for the formation of the quinoneimine dye (ε498=4,650 M^−1cm^−1 at pH 7.6), the condensation product of vanillic acid and oxidized 4-aminopyrine. The latter is produced from 4-aminopyrine by the action of horseradish peroxidase that has been oxidized by H2O2 (Holt et al., supra [1997]). The assays were done at 25° C. by varying the concentration of the amine substrate, while the oxygen concentration in the assay solution was constant at the air-saturating level of 237 μM. The data were fit, by nonlinear regression to steady-state kinetic equations (McIntire et al., Biochem. J. 228:325-335 [1985]), which provided the values, and standard deviations thereof, for kcat′, KS′ and kcat′/KS′ (=Q, the specificity constant). [formula]
The dissociation constants, KD, for these and other amines were estimated in the following manner. It was assumed that the competition was competitive, since in the presence of the inhibitors, at a saturating N^1-acetyl-Spm concentration, the rate of the reaction was equal to the value of the true kcat. It was also assumed that the mechanism is of the ping-pong type. Thus, the applicable steady-state equation is (Segal, Enzyme Kinetics, John Wiley & Sons, New York, pp. 606-625 [1975]): [formula]
On the left, kcat and KS are the steady-state parameters for N^1-acetyl-Spm (S), and I and KI (=KD), represent the inhibitor and its inhibition constant, respectively. KIO and KO are the inhibition constant and Michaelis constant for O2, respectively. The equation can be converted to the expression on the right side when: [formula]
The expressions for kcat′ and KS′ (at the fixed [O2]=[…]) are the same as those when the inhibitor is absent. Since the values of kcat′ and KS″ were predetermined, inhibition assays were carried out where [S]≈KS″, which, in the absence of I, would give a rate, ν≈0.5×kcat″. In these assay, for each inhibitor, [I] was adjusted so the apparent rate was somewhat less then 0.5 kcat′. In this situation, after substitution and rearrangement, Equation 1 reduces to: [formula]
Since [I] and kcat′ are known, and ν is the measured rate in the presence of the inhibitor, the value of KI′ can be estimated. It is assumed that these apparent KI′ are good approximations of the true KI (=KD) values. […] The estimated KI′ values provided in Table 1, are the averages of these four values. If the reactions of the polyamine substrates and O2 with mPAO obeys a ping-pong type mechanism, the apparent values, kcat′/KS′, are equal to the true kcat/KS values.

[3] = apparent, inhibition of N^1-acetyl-Spm oxidation, average of four inhibitor concentrations, read-out: KI′ = KD

| SMILES | inhibition of mPAO by product H2O2 (mPAO [1]) | kcat′ (mPAO [2]) [s⁻¹] | Ki (mPAO [2]; [3]) [µM] | inhibitor of mPAO (oxidation of N^1-acetyl-Spm) (mPAO [2]) | substrate for mPAO (oxidation by mPAO) (mPAO [2]; listed as N-(3-Aminopropyl)-1,10-diaminodecane) | substrate for mPAO (oxidation by mPAO) (mPAO [2]; listed as N-(3-aminopropyl)-1,10-diaminodecane) | kcat′/KS′ (mPAO [2]) | KS′ (mPAO [2]) [µM] | substrate for mPAO (oxidation by mPAO) (mPAO [2]) | KI′ = KD (mPAO [2]; apparent, inhibition of N^1-acetyl-Spm oxidation, average of four inhibitor concentrations) | Ki (mPAO [2]) [µM] |
| --- | --- | --- | --- | --- | --- | --- | --- | --- | --- | --- | --- |
| OO [H2O2, hydrogen peroxide] | inhibition does not occur |  |  |  |  |  |  |  |  |  |  |
| NCCCCCCCCCCNCCCN [N-(3-aminopropyl) 1,10 decanediamine, N-(3-Aminopropyl)-1,10-diaminodecane] |  | 0 | 35 | good inhibitor of mPAO | not oxidized by mPAO | not to be a PAO substrate | 0 M⁻¹ s⁻¹ |  |  |  |  |
| CCNCCCNCCCNCCCNCC [N^1,N^11-diethyl-nor-Spm, N^1,N^11-bis[ethyl]norspermine] |  | 1.93 ± 0.03 |  |  |  |  | (1.27 ± 0.03) × 10^4 M^−1sec^−1 | 157 ± 7 | very good substrates |  |  |
| CCNCCCNCCCCNCCCNCC [N^1,N^12-diethyl-Spm, N^1,N^12-bis[ethyl]spermine] |  | 0.415 ± 0.012 |  |  |  |  | (2.77 ± 0.13) × 10^3 M^−1sec^−1 | 150 ± 10 | very good substrates |  |  |
| CC(=O)NCCCCNCCCN [N^8-acetyl-Spd] |  | 0 | 70 |  |  |  | 0 M⁻¹ s⁻¹ | 0 | not oxidized by mPAO |  |  |
| NCCCCN [Put, putrescine] |  | 0 | 1000 | inhibitors |  |  | 0 M⁻¹ s⁻¹ | 0 |  |  |  |
| NCCCCNCCCN [Spd, spermidine] |  | 0 | 190 | inhibitors |  |  | 0 M⁻¹ s⁻¹ | 0 | poor substrates for mPAO |  |  |
| NCCCNCCCCNCCCN [Spm, spermine] |  |  | 750 | inhibitors |  |  |  | 716 ± 33 | poor mPAO substrate; also recorded: poor substrates for mPAO |  |  |
| NCc1ccccc1 [benzylamine] |  | 0 |  | not |  |  | 0 M⁻¹ s⁻¹ | 0 |  | ∞ (infinity) |  |
| N=C(N)NCCCCCCCCCCNC(=N)N [synthalin, 1,10-bisguanidinodecane] |  | 0 |  | extremely potent inhibitor of mPAO |  |  | 0 M⁻¹ s⁻¹ | 0 |  |  | 0.05 |
